Laboratory results taken from patent US10245847B2, “Reaction solution and ink jet recording method” (Seiko Epson Corporation, priority 2016, dated 2019).

Experiments:
[1] = degree of solubility with respect to an aqueous solution having a concentration of 2-pyrrolidone of 20% by mass; settings: 20% by mass 2-pyrrolidone aqueous solution, 25° C.
[2] = log P value (water octanol distribution coefficient) of organic solvents
Text: Here, regarding several organic solvents, a log P value (water octanol distribution coefficient) will be described below. […] Note that, numbers in parentheses indicate log P values.
Here, “log P value” means an index indicating the hydrophobicity of the compound. The log P value indicates the ratio of the solutes distributed in these two layers in the octanol/water system. In other words, the larger the log P value of the solute is, the higher the hydrophobicity is, and it dissolves well in the octanol phase. Further, the fact that the log P values of the two kinds of substances are approximate means that the hydrophobicity of each is similar. The log P value can be obtained by, for example, a flask shaking method in which a solute and two kinds of solvents are actually put into a flask and are stirred well, and an HPLC method using high performance liquid chromatography (HPLC).

[3] = LogP, Table 2, organic solvents of the reaction solution
[4] = LogP, Table 3, organic solvents of the reaction solution

Compound	Solubility to 2-pyrrolidone aqueous solution ([1]; Table 2) [%]	Solubility to 2-pyrrolidone aqueous solution ([1]; Table 3) [%]	logP [2]	also measured
CCC(O)CO (stereo not drawn) [1,2-butanediol]				Solubility to 2-pyrrolidone aqueous solution ([1]; Table 1): ≥1%; logP ([2]; octanol/water): 0.06
COC(C)CCO (stereo not drawn) [3-methoxy-1-butanol]	≥1	≥1	0.07	
COC(C)(C)CCO [3-methoxy-3-methylbutanol]			-0.63	
COCCC(=O)N(C)C [3-methoxy-N,N-dimethyl propanamide]				LogP [2]: 0.73
CC(=O)OCCOC(C)=O [Ethylene glycol diacetate]			0.4	LogP [2]: 0.40
OCC(O)CO [Glycerin]				LogP [2]: −1.76
CCC(=O)N(C)C [N,N-dimethyl propionamide]		≥1	0.46	
CCCCOCCOCCOCCCC [diethylene glycol di-n-butyl ether]			1.92	LogP [2]: 1.92
CCOCCOCCOC [diethylene glycol ethyl methyl ether]	≥1	≥1	0.69	
CCCCOCCOCCO [diethylene glycol monobutyl ether]			1.19	
COCCOCCO [diethylene glycol monomethyl ether]	≥1	≥1		logP [2, 3]: -1.18; logP [2, 4]: -1.18
CCCCCCOCCO [ethylene glycol mono-n-hexyl ether]	≥1	≥1	1.57	
CCCCOCCOC(C)=O [ethylene glycol monobutyl ether acetate]	≥1	≥1		logP ([2]; octanol/water): 1.79
CC(=O)OCC(C)OC(C)=O (stereo not drawn) [propylene glycol diacetate]			0.74	
CCC(=O)OCC(C)OC(=O)CC (stereo not drawn) [propylene glycol dipropionate]			1.76	
CCCCOCC(C)O (stereo not drawn) [propylene glycol monobutyl ether]	≥1	≥1	1.19	
CCCOCC(C)O (stereo not drawn) [propylene glycol monopropyl ether]			-0.81	
CC(O)CO (stereo not drawn) [propylene glycol]			-1.4	
COCCOCCOCCOC [triethylene glycol dimethyl ether]			-0.67	
CCCCOCCOCCOCCO [triethylene glycol monobutyl ether]			0.51	
O=C1CCCO1 [γ-butyrolactone]	≥1	≥1		logP [2, 3]: -0.64; logP [2, 4]: -0.64; logP ([2]; log P value (water octanol distribution coefficient), octanol/water): -0.64
polyethylene glycol monomethyl ether	≥1	≥1		LogP [2]: 0.80
